The results in this text go back to publication PMC7506137, “Selective Phosphodiesterase 1 Inhibitor BTTQ Reduces Blood Pressure in Spontaneously Hypertensive and Dahl Salt Sensitive Rats: Role of Peripheral Vasodilation” (Frontiers in Physiology, 2020).

Common to all, as to format: in vivo
Data set [1] has as its system Sprague Dawley rats. Put plainly: Rat telemetry, blood pressure and heart rate. An excerpt: (§1) Male Sprague Dawley (Taconic Biosciences) rats, Spontaneous Hypertensive rats (Charles River Laboratories, United States), and Dahl Salt Sensitive rats (Medical College of Wisconsin) were implanted with transmitters (HD S10; Data Science International) for collection of BP and heart rate (HR) data. The transmitters are capable of transmitting a BP signal via a pressure catheter inserted into the abdominal aorta. Initially, a baseline was established and recorded. Each rat was then removed from its recording cage and was dosed by p.o. gavage with vehicle or compound and the animals were then returned to the recording cage. Data sampling for BP and HR was carried out in intervals at selected time points for the duration of the experiment.
(§2) All data in this manuscript were presented as mean ± SEM with a significance level of p < 0.05, and n represents the number of individual animals. The significance of differences in concentration-response curves in the ear temperature and, myograft study were calculated using t-test, compare to the vehicle group. The EC50 was calculated using GraphPad Prism 8.3 using a 4-parameter logistic non-linear curve fit model. Single-dose rat telemetry data for normal and SHR rats and repeat-dose telemetry data in Dahls salt-sensitive rats were analyzed by two-way repeated measures ANOVA. Treatment group main effects were compared by Tukey’s HSD method. All telemetry data were analyzed with GraphPad Prism 8.3.

In data set [2] the test system is Dahl Salt Sensitive rats. Put plainly: Rat telemetry, blood pressure and heart rate.
Excerpt: as §1, §2

Data set [3] deals with Spontaneous Hypertensive rats (SHR). Put plainly: Rat telemetry, blood pressure and heart rate.
Excerpt: as §1, §2

The subject of data set [4] is Sprague Dawley rats. Put plainly: Rat ear temperature (vasodilation). Here is the method:
Male Sprague Dawley rats at 6 to 7 weeks were dosed orally by p.o. gavage with different doses of BTTQ formulated in 1% hydroxyethlycellulose (Dow Corning, Midland, MI, United States) (w/v), 0.25% polysorbate 80 (Sigma-Aldrich, St. Louis, MO, United States) (v/v), and 0.05% antifoam (v/v; Dow Corning, Midland, MI, United States) in purified water. Following dosing, ear temperature was measured by using a k-type thermocouple probe digital thermometer (Cole Parmer) every hour for 6 h and then at 24 h. Blood samples for plasma exposure measurement were obtained at the same time. Blood was collected via a tail snip directly into a 20-μL EDTA-coated capillary and immediately spotted onto a Whatman DMPK-C DBS card (GE Healthcare Bio-Sciences). Tail snips were performed by removing approximately 1 mm of the tail by using a scalpel. Blood flow was initiated by gentle squeezing of the tail. No analgesia or anesthesia was used during blood collections. A single sample and spot were collected per time point. The DBS cards were allowed to dry for approximately 2 h at room temperature, after which the cards were placed in a zip-top bag, stored, and shipped at ambient temperature.
as §2

Where [5] appears, read: 3 mg/kg twice daily oral for 21 days, high salt (4%) diet.

Turning to `O=c1c2nnc(C3(C4CC4)CC3)n2c2c(n1CC1CC1)CCCC2` [BTTQ, 1-[1,1′-bi(cyclopropyl)-1-yl]-5-(cyclopropylmethyl)-6,7,8,9-tetrahydro[1,2,4]triazolo[4,3-A]quinoxaline-4(5H)-one], the heart rate entry is listed as “dose-dependent increase” in data set [1] (1 and 3 mg/kg twice daily oral); “elevation of heart rate” in data set [2] (setting [5]); “dose-dependent increase” in data set [3] (0.03-3 mg/kg twice daily oral). For the same compound, the “immediate decrease in MAP compared to the vehicle” value in data set [1] (1 and 3 mg/kg twice daily oral (both groups), within 1 h of the first dose) was “about 5 mmHg”. In addition, the “time after second dose at which BP-lowering effect returned to baseline” value in data set [1] (high dose group (3 mg/kg twice daily oral)) turned out to be 7 h. The figures for the “lowering of blood pressure compared to the vehicle-treated group” value in data set [1] (normal Sprague Dawley rats), in data set [2] (Dahl salt-sensitive rats) and in data set [3] (SHR) were “about 9 mmHg”, approximately 24 mmHg and approximately 36 mmHg, respectively. For the same compound, the “MAP compared to the vehicle-treated group” value in data set [2] (setting [5]) is on record as “profound reduction”. The “effect on BP” value in data set [3] (0.03 mg/kg twice daily oral) is recorded as “did not show any effect”. In addition, the “effect on HR” value in data set [3] (0.03 mg/kg twice daily oral) is “did not show any effect”. Besides, the MAP result in data set [3] (0.03, 0.1, 0.3, 1, and 3 mg/kg twice daily oral, 24 h telemetry) is “dose-dependent decrease”. The “additional blood pressure lowering” value in data set [3] (BTTQ administered on top of ACE inhibitor) was “about 22 mmHg”. In addition, the “increase of ear temperature compared to the vehicle control” value in data set [4] (3 mg/kg single oral dose, within 1 h) was 14%. Besides, the ear temperature entry in data set [4] (0.1, 0.3, and 1 mg/kg single oral dose) is on record as “significant dose-dependent increase”. The ED50 – broadly, the dose that gives a 50% effect, or the effect in half of the subjects – in data set [4] (Rattus norvegicus, single oral dose, 1 h time point, four parametric logistic equation, read-out: median effective dose (ED50), ear temperature) is 0.14 mg/kg. Besides, the “time at which ear temperature returned to baseline” value in data set [4] (all doses, single oral dose) was 6 h. In addition, in data set [4] (single oral dose), the “time for which the increase in ear temperature stayed significant” value was “up to 3 h”.
